This is an account of results in patent publication US8163778B2 (Hoffmann-LA Roche Inc., priority 2007, dated 2012).

SMILES strings stand for the structures.

The assay deals with T1, human liver FBPase (Homo sapiens, UniProt P09467).
T1 construct: made in house; host or cells: E. coli
T1 sequence (P09467 2-338 limits assumed): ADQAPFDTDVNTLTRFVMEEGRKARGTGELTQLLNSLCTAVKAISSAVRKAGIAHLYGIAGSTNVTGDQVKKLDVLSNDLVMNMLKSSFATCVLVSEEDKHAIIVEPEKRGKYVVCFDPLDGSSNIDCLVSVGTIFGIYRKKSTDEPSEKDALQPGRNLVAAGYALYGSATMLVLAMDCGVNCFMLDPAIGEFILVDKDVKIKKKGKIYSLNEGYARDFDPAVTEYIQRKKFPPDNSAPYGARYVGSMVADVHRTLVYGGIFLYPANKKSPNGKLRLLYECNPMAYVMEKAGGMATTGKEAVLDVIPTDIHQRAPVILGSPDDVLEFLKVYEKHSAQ
Kind of assay: FBPase assay (malachite green phosphate release). The format is biochemical. The following applies: recombinant human liver FBPase, 50 μM fructose-1,6-bisphosphate. The gist of the method:
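Recombinant human liver FBPase (E. coli-expressed, heat-treated, purified) reacted with 50 μM fructose-1,6-bisphosphate in pH 7.2 HEPES, 2 mM MgCl2, 1% DMSO, 50 min at room temperature. Released phosphate quantified with malachite green/ammonium molybdate reagent at 620 nm.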
Consider `COCCc1sc(S(=O)(=O)NC(=O)Nc2cc([S+](C)[O-])cc(NC(N)=O)n2)cc1C` (stereo not shown) [Compound 95, N-{[6-(Carbamoylamino)-4-(methylsulfinyl)pyridin-2-yl]carbamoyl}-5-(2-methoxyethyl)-4-methylthiophene-2-sulfonamide], for which the IC50 amounted to 5.08 µM.

Regarding `COCCc1sc(S(=O)(=O)NC(=O)Nc2cc(C(F)(F)F)cc(C)n2)cc1C` [Compound 96, 5-(2-methoxyethyl)-4-methyl-N-{[6-methyl-4-(trifluoromethyl)pyridin-2-yl]carbamoyl}thiophene-2-sulfonamide], the 50% inhibitory concentration (IC50) amounted to 0.527 µM.

On to `CNC(=O)c1cc(C(F)(F)F)cc(NC(=O)NS(=O)(=O)c2cc(C)c(CCO)s2)n1` [Compound 97, Methyl-6-[({[5-(2-hydroxyethyl)-4-methyl-2-thienyl]sulfonyl}carbamoyl)amino]-4-(trifluoromethyl)pyridine-2-carboxamide], for which the IC50 worked out at 0.278 µM.

In the case of `COC(=O)c1cc(C(F)(F)F)cc(NC(=O)NS(=O)(=O)c2csc(C)c2)n1` [Compound 98, Methyl-6-({[(5-methyl-3-thienyl)sulfonyl]carbamoyl}amino)-4-(trifluoromethyl)pyridine-2-carboxylate], the concentration for half-maximal inhibition (IC50) came to 2.29 µM.

For the compound `CCOC(=O)c1cc(NC(=O)NC)nc(NC(=O)NS(=O)(=O)c2cc(C)c(CCOC)s2)c1` [Compound 99, Ethyl-2-[({[5-(2-methoxyethyl)-4-methyl-2-thienyl]sulfonyl}carbamoyl)amino]-6-[(methylcarbamoyl)amino]isonicotinate], the concentration for half-maximal inhibition (IC50) is 0.92 µM.

Take `CCOC(=O)c1cc(N)nc(NC(=O)NS(=O)(=O)c2cc(C)c(CCOC)s2)c1` [Compound 100, Ethyl-2-amino-6-[({[5-(2-methoxyethyl)-4-methyl-2 thienyl]sulfonyl}carbamoyl)amino]isonicotinate]: the IC50 was 3.41 µM.

In the case of `CNC(=O)Nc1cc(C(N)=O)cc(NC(=O)NS(=O)(=O)c2cc(C)c(CCOC)s2)n1` [Compound 101, 2-[({[5-(2-Methoxyethyl)-4-methyl-2-thienyl]sulfonyl}carbamoyl)amino]-6-[(methylcarbamoyl)amino]isonicotinamide], the concentration for half-maximal inhibition (IC50) was > 100 µM.

Take `COCCc1sc(S(=O)(=O)NC(=O)Nc2cc(C(N)=O)cc(N)n2)cc1C` [Compound 102, 2-Amino-6-[({[5-(2-methoxyethyl)-4-methyl-2-thienyl]sulfonyl}carbamoyl)amino]isonicotinamide]: the IC50 stood at 42 µM.

`CNC(=O)Nc1cc(C(=O)NC)cc(NC(=O)NS(=O)(=O)c2cc(C)c(CCOC)s2)n1` [Compound 103, 2-[({[5-(2-Methoxyethyl)-4-methyl-2-thienyl]sulfonyl}carbamoyl)amino]-N-methyl-6-[(methylcarbamoyl)amino]isonicotinamide]: the half-inhibitory concentration (IC50) is 5.7 µM.

On to `CNC(=O)c1cc(N)nc(NC(=O)NS(=O)(=O)c2cc(C)c(CCOC)s2)c1` [Compound 104, 2-Amino-6-[({[5-(2-methoxyethyl)-4-methyl-2-thienyl]sulfonyl}carbamoyl)amino]-N-methylisonicotinamide], for which the IC50 was > 100 µM.

As for `COC(=O)c1cc(C(F)(F)F)cc(NC(=O)NS(=O)(=O)c2cc(C)c(CCO)s2)n1` [Compound 105, Methyl-6-[({[5-(2-hydroxyethyl)-4-methyl-2-thienyl]sulfonyl}carbamoyl)amino]-4-(trifluoromethyl)pyridine-2-carboxylate], the 50% inhibitory concentration (IC50) stood at 2.61 µM.

For `Cc1cc(S(=O)(=O)NC(=O)Nc2cc(C(F)(F)F)cc(CO)n2)sc1CCO` [Compound 106, 5-(2-Hydroxyethyl)-N-{[6-(hydroxymethyl)-4-(trifluoromethyl)pyridin-2-yl]carbamoyl}-4-methylthiophene-2-sulfonamide], the IC50 was found to be 1.5 µM.

Regarding `CNC(=O)Nc1cc(C(N)=NO)cc(NC(=O)NS(=O)(=O)c2cc(C)c(CCOC)s2)n1` [Compound 107, N′-Hydroxy-2-[({[5-(2-methoxyethyl)-4-methyl-2-thienyl]sulfonyl}carbamoyl)amino]-6-[(methylcarbamoyl)amino]pyridine-4-carboximidamide], the IC50 worked out at 2.55 µM.

As a reminder, the IC50 is the concentration that gives 50% inhibition.
